Measurements from US6500820B1, “Pharmaceutical composition for neurotrophic action” (priority 1998, dated 2002).

Experiments:
[1] = system: choline acetyltransferase (ChAT); test: choline acetyltransferase (ChAT) activity in rat septal neurons cultured on rat hippocampal astrocyte feeder layer; format: cell-based; conditions: for ChAT activity: compound A 10-1000 nM
Description: This experiment was done by a method reported by Pharmacology of Neurotrophic Factors, Ann. Rev. Pharmacol. Toxicol., Vol.37, pages 239-267, (1997).
Astrocytes were obtained from the new-born Sprague-Dawley (SD) rat hippocampus by trypsin digestion and cultured in a serum-containing medium in a culture flask. The confluent astrocytes were harvested and seeded on 96 well plates at the density of 5×10^4 cells/well and served as the feeder layer for neurons after halting the overgrowth with 10 μM cytosine arabinoside. Neurons were taken from the septal area of E17 fetal SD rats by trypsin digestion and seeded on the astrocyte feeder layer at the density of 7.5×10^4 cells/well in a serum-free medium. On the next day, the compound was added to the culture with or without 3 ng/ml recombinant human NGF (rhNGF) and cultured further for 7 days. Then cells were lysed with 5 mM Tris-HCl (pH 7.4)/0.1% Triton X-100 and choline acetyltransferase (ChAT) activity was measured radiometrically by the method of Fonnum.

CA1 neurons = test: 10-min forebrain ischemia (4-vessel occlusion) in rats, number of living CA1 pyramidal cells; format: in vivo, rat; conditions: male Wistar rats, 10-min 4 VO; 10 mg/kg orally 1 hr before and 4 hr after ischemia, then once daily for 6 days; counted 7 days after occlusion; P<0.05
Description: Male Wistar rats (Japan Clea Inc., Tokyo, Japan) aged 9 weeks were used. Rats were subjected to 10-min forebrain ischemia using a method reported by Pulsinelli W. A. and Brierley J. B., Stroke, Vol.10, pages 267-272, (1979). Compound A (10 mg/kg) was orally administered 1 hr before and 4 hr after the ischemic operation, and from the next day, it was administered once daily for 6 days.
Rats were sacrificed 7 days after occlusion for histopathological observation. Under deep pentobarbital anesthesia, rats were perfused transcardially with physiological saline solution. The brains were removed, soaked in FAM (formaline:acetic acid:methanol=1:1:8) solution, and embedded in paraffin. Serial coronal sections (6 μm) were cut at the level of the anterior hippocampus, approximately 3.8-4.3 mm posterior to the bregma and stained with hematoxilin and eosin. The number of living pyramidal cells per 250 μm length of CA1 sector were counted under a light microscope. The average of the right and left neuronal densities were defined as the neuronal density for each rat.
Group differences in the number of CA1 pyramidal cells were analyzed using Student t-tests.

[2] = in the presence of 3 ng/ml rhNGF, cultured 7 days (FIG. 2)
[3] = without rhNGF, cultured 7 days, rat septal neurons on astrocyte feeder layer (FIG. 1)

SMILES | low concentration from which neurotrophic action is shown ([1]; ChAT activity in rat septal neurons, with or without rhNGF) [nm] | ChAT activity [1, 2] | ChAT activity [1, 3] | number of CA1 pyramidal cells (survival of CA1 neurons) versus vehicle-treated 4 VO control (CA1 neurons)
O=C(CCC1CCN(Cc2ccccc2)CC1)c1ccc2c(c1)NCCCC2.O=C(O)/C=C/C(=O)O [compound A, 3-[1-(phenylmethyl)-4-piperidinyl]-1-(2,3,4,5-tetrahydro-1H-1-benzazepin-8-yl)-1-propanone fumarate] | 10 | markedly elevated ChAT activity | apparently increased ChAT activity | significantly greater than that of the vehicle-control
Nc1c2c(nc3ccccc13)CCCC2 [tacrine, reference compound] |  | did not affect ChAT activity | did not affect ChAT activity | 
